Ki data for seven molecules are collected here from BindingDB's records for doi:10.1016/0922-4106(95)90043-8 (Uppsala, 1995).

The term Ki denotes a dissociation constant, usually derived from enzyme kinetics or from competition with a known ligand.

Non-standard residues stand in square brackets, D forms with d. Residues, ends and D or L forms follow the SMILES beside them. Met(O2) = CS(=O)(=O)CC[C@H](N)C(=O)O

For one assay, the target named is Melanocortin receptor 5 (Homo sapiens, UniProt P33032).
In the next assay the target is Melanocortin receptor 3 (Homo sapiens, UniProt P41968).
For assay [1], the target named is Melanocyte-stimulating hormone receptor (Homo sapiens, UniProt Q01726).
Melanocyte-stimulating hormone receptor, sequence (Q01726 whole entry): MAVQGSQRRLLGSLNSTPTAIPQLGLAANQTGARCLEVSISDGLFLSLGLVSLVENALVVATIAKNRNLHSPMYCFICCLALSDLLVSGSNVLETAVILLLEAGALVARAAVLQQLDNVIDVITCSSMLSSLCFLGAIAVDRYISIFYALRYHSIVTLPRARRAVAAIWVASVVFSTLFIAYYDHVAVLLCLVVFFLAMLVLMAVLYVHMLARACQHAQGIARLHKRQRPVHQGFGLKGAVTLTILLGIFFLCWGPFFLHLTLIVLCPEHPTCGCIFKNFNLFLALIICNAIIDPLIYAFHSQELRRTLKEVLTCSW

Melanocortin receptor 5, sequence (P33032 whole entry): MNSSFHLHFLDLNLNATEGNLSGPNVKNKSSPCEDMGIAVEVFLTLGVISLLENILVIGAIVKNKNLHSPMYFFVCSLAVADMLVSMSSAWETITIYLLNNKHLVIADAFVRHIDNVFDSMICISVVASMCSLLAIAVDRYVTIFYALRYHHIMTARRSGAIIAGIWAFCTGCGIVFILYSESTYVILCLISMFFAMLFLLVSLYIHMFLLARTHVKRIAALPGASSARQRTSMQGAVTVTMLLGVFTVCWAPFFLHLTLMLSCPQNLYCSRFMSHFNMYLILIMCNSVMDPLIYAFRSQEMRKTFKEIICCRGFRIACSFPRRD
Melanocortin receptor 3, sequence (P41968 whole entry): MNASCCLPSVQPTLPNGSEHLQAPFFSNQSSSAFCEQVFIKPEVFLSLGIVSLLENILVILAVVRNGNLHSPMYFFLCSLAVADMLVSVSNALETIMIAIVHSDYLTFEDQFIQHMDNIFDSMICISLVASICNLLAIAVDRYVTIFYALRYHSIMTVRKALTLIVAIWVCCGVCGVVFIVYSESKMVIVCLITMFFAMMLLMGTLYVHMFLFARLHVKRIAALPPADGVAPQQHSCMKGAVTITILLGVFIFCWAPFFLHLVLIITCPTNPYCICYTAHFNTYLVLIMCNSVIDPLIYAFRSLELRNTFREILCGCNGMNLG

As to `CSCC[C@H](NC(=O)[C@H](CO)NC(=O)[C@H](Cc1ccc(O)cc1)NC(=O)[C@@H](N)CO)C(=O)N[C@@H](CCC(=O)O)C(=O)N[C@@H](Cc1cnc[nH]1)C(=O)N[C@@H](Cc1ccccc1)C(=O)N[C@@H](CCCNC(=N)N)C(=O)N[C@@H](Cc1c[nH]c2ccccc12)C(=O)NCC(N)=O` [ACTH-(1-10)], the Ki at Melanocortin receptor 5 is more than 10000 nM; on Melanocortin receptor 3, 145 nM.
For `CSCC[C@H](NC(=O)[C@@H](NC(=O)[C@@H](N)Cc1ccc(O)cc1)C(C)C)C(=O)NCC(=O)N[C@@H](Cc1cnc[nH]1)C(=O)N[C@@H](Cc1ccccc1)C(=O)N[C@@H](CCCN=C(N)N)C(=O)N[C@@H](Cc1c[nH]c2ccccc12)C(=O)N[C@@H](CC(=O)O)C(=O)N[C@@H](CCCN=C(N)N)C(=O)N[C@@H](Cc1ccccc1)C(N)=O` [Gamma1-MSH], the affinity in assay [1] corresponds to a Ki of 2.68 nM. In other words, the single-digit nanomolar range.
Regarding H-SMEVRGW-OH [delta MSH], the Ki (in assay [1]; at Melanocortin receptor 5; at Melanocortin receptor 3) was more than 10000 nM throughout.
In the case of `CS(=O)(=O)CC[C@H](N)C(=O)N[C@@H](CCC(=O)O)C(=O)N[C@@H](Cc1c[nH]cn1)C(=O)N[C@@H](Cc1ccccc1)C(=O)N[C@H](CCCCN)C(=O)N[C@@H](Cc1ccccc1)C(=O)O` [CAS_50913-82-1] (H-[Met(O2)]EHF[dK]F-OH), the Ki (in assay [1]; on Melanocortin receptor 5; at Melanocortin receptor 3) was more than 10000 nM each time.
With “H-SYSMEHFRWGKPVGKKRRPVKVYPNGAEDESAEAFPLEF-OH [ACTH]”, the inhibitory constant (Ki) in assay [1] is 2.5 nM; on Melanocortin receptor 5, more than 10000 nM; on Melanocortin receptor 3, 86.9 nM.
With `CSCC[C@H](N)C(=O)N[C@@H](CCC(=O)O)C(=O)N[C@@H](Cc1cnc[nH]1)C(=O)N[C@@H](Cc1ccccc1)C(=O)N[C@@H](CCCNC(=N)N)C(=O)N[C@@H](Cc1c[nH]c2ccccc12)C(=O)NCC(N)=O` [NSC_123787], the results for the Ki (in assay [1]; at Melanocortin receptor 5; at Melanocortin receptor 3) were 106 nM, more than 10000 nM and 784 nM, respectively.
Taken in the same sequence, the figures for “H-YVMGHFRWDRFGRRNGSSSSGVGGAAQ-OH [Gamma3-MSH]” were 1.39 nM, more than 10000 nM and 10.9 nM.
